Laboratory results from patent EP3098228A1, “POLYOXOMOLYBDATE-BISPHOSPHONATE COMPLEX CONTAINING A HETEROMETALLIC ION DIFFERENT FROM MOLYBDENUM” (CENTRE NATIONAL DE LA RECHERCHE SCIENTIFIQUE, priority 2015, dated 2016).
Where two headings read alike, the source gives them in different places. Each block holds one compound with its values, some of them ahead of it.

Experiments:
[1] = Solubility in water (remark in the solid state NMR section); format: physicochemical
Text: The broadening could be due either to the low crystallinity in Mo12(AlePy)4Pt4 and/or, a dynamic disorder, since we also observe a much less efficient CP transfer in CPMAS experiments when compared with Mo12(AlePy)4.

[2] = test system: Human tumor cell lines MCF-7 (breast adenocarcinoma); assay: Cell-growth inhibition assay (MTT cell proliferation assay, 4 days); format: cell-based; details: MCF-7, 4 days incubation
Protocol: Cells were plated at a density of 5000 cells/well.
Results are gathered in table 3 hereinafter. The results are shown on a molar basis (IC50 values, in µM) as well as on a per-bisphosphonate basis, which is more logical when comparisons are to be made with the pure bisphosphonates.

MCF-7 [3] = assay: Cell growth "rescue" experiments with geranylgeraniol (GGOH); format: cell-based, Human
Protocol: Addition of geranylgeraniol (GGOH) was tested on Mo4Zol2Mn.
Protocol Cell growth "rescue" experiments with geranylgeraniol were carried out as described previously, and namely in Y. Zhang, et al J. Am. Chem. Soc. 2009, 131, 51.
An increase in the IC50 indicates a direct role for the bisphosphonate moiety in cell growth inhibition.

MCF-7 [4] = details: literature values, cited from earlier work
[5] = measurement conditions not strictly identical to Table 3, read-out: IC50
[6] = per bisphosphonate, read-out: IC50 per BP

Compound: Rb(NH4)4[(Mo2O6)2(O3PC(CH2C3H4N2)(O)PO3)2Mn].14H2O [Mo4Zol2Mn]
IC50 ([2]; molar basis, read-out: IC50): 1.3 ± 0.24 µM
IC50 ([2]; per-bisphosphonate basis, read-out: IC50 per BP): 2.6 ± 0.48 µM
IC50 (MCF-7 [3]; with addition of geranylgeraniol (GGOH), read-out: IC50 +GGOH): 7.6 µM
IC50 (MCF-7 [3]; without GGOH, read-out: IC50): 1.3 µM

Compound: NCCCC(O)(P(=O)(O)O)P(=O)(O)O [Ale, alendronate]
IC50 (MCF-7 [4]; [5]): 130 ± 2.2 µM
IC50 (MCF-7 [4]; [6]): 130 µM

The next lines start with results.

solubility in water [1]: essentially insoluble in water
Compound: Na3{Na(Mo3O8)4[O3PCC3H6NH2CH2(C5H5N)(O)PO3]4} .25H20 [Mo12(AlePy)4]

IC50 ([2]; Homo sapiens, MCF7, 96 h, molar basis, read-out: IC50): 15 ± 2.6 µM
IC50 ([2]; Homo sapiens, MCF7, 96 h, per-bisphosphonate basis, read-out: IC50 per BP): 15 ± 2.6 µM
IC50 (MCF-7 [3]; Homo sapiens, MCF7, with addition of geranylgeraniol (GGOH), read-out: IC50 +GGOH): 48 µM
IC50 (MCF-7 [3]; Homo sapiens, MCF7, without GGOH, read-out: IC50): 15 µM
Compound: O=P(O)(O)C(O)(Cn1ccnc1)P(=O)(O)O [Zol, zoledronate]
IC50 (MCF-7 [4]; [5]): 7.7 ± 2.6 µM
IC50 (MCF-7 [4]; [6]): 7.7 µM

IC50 ([2]; molar basis, listed as Mn(II)Cl2, read-out: IC50): ~740 µM
IC50 ([2]; molar basis, read-out: IC50): 740 ± 140 µM
Compound: [Cl][Mn][Cl] [MnCl2]
